# Results: article PMC9856672, “SGC-CAMKK2-1: A Chemical Probe for CAMKK2” (Cells, 2023)
# Legend:
# EGFR(T790M) = molecular target: T1, EGFR(T790M) (Homo sapiens, UniProt P00533, T790M); assay: KINOMEscan 1 μM, EGFR(T790M); type: binding; conditions: 1000 nM; Entrez EGFR; read-out: Percent Control
# T1 construct: purchased Eurofins DiscoverX KINOMEscan
# Excerpt: (§1) Supplement cells-12-00287-s001.zip/File S2. KinomeScan data for the CAMKK2 probe and negative control.xlsx, sheet "SGC-CAMKK2-1" | column: Percent Control
# [1] = molecular target: T2, RSK2(Kin.Dom.2-C-terminal) (Homo sapiens, UniProt P51812); assay: DiscoverX KINOMEscan binding assay at 1 μM, RSK2(Kin.Dom.2-C-terminal); conditions: RSK2(Kin.Dom.2-C-terminal) (RPS6KA3); Compound Concentration 1000 nM; read-out: Percent Control
# T2 construct: RSK2(Kin.Dom.2-C-terminal); purchased Eurofins DiscoverX KINOMEscan
# Excerpt: as §1
# PIK3CA = molecular target: T3, PIK3CA (Homo sapiens, UniProt P42336); assay: DiscoverX KINOMEscan binding assay at 1 μM, PIK3CA; conditions: Compound Concentration 1000 nM, read-out: Percent Control
# T3 construct: purchased Eurofins DiscoverX KINOMEscan
# Excerpt: as §1
# PDGFRB = molecular target: T4, PDGFRB (Homo sapiens, UniProt P09619); assay: DiscoverX KINOMEscan binding assay at 1 μM, PDGFRB; conditions: Compound Concentration 1000 nM, read-out: Percent Control
# T4 construct: purchased Eurofins DiscoverX KINOMEscan
# Excerpt: as §1
# TRKC = molecular target: T5, TRKC (Homo sapiens, UniProt Q16288); assay: KINOMEscan 1 μM, TRKC; type: binding; conditions: 1000 nM; Entrez NTRK3; read-out: Percent Control
# T5 construct: purchased Eurofins DiscoverX KINOMEscan
# Excerpt: as §1
# MAP3K2 = molecular target: T6, MAP3K2 (Homo sapiens, UniProt Q9Y2U5); assay: KINOMEscan 1 μM, MAP3K2; type: binding; conditions: 1000 nM; Entrez MAP3K2; read-out: Percent Control
# T6 construct: purchased Eurofins DiscoverX KINOMEscan
# Excerpt: as §1
# TLK2 = molecular target: T7, TLK2 (Homo sapiens, UniProt Q86UE8); assay: DiscoverX KINOMEscan binding assay at 1 μM, TLK2; conditions: Compound Concentration 1000 nM, read-out: Percent Control
# T7 construct: purchased Eurofins DiscoverX KINOMEscan
# Excerpt: as §1
# FER = molecular target: T8, FER (Homo sapiens, UniProt P16591); assay: KINOMEscan 1 μM, FER; type: binding; conditions: 1000 nM; Entrez FER; read-out: Percent Control
# T8 construct: purchased Eurofins DiscoverX KINOMEscan
# Excerpt: as §1
# FGFR1 = molecular target: T9, FGFR1 (Homo sapiens, UniProt P11362); assay: KINOMEscan 1 μM, FGFR1; type: binding; conditions: 1000 nM; Entrez FGFR1; read-out: Percent Control
# T9 construct: purchased Eurofins DiscoverX KINOMEscan
# Excerpt: as §1
# STK35 = molecular target: T10, STK35 (Homo sapiens, UniProt Q8TDR2); assay: KINOMEscan 1 μM, STK35; type: binding; conditions: 1000 nM; Entrez STK35; read-out: Percent Control
# T10 construct: purchased Eurofins DiscoverX KINOMEscan
# Excerpt: as §1
# RIOK2 = molecular target: T11, RIOK2 (Homo sapiens, UniProt Q9BVS4); assay: DiscoverX KINOMEscan binding assay at 1 μM, RIOK2; conditions: Compound Concentration 1000 nM, read-out: Percent Control
# T11 construct: purchased Eurofins DiscoverX KINOMEscan
# Excerpt: as §1
# PLK1 = molecular target: T12, PLK1 (Homo sapiens, UniProt P53350); assay: DiscoverX KINOMEscan binding assay at 1 μM, PLK1; conditions: Compound Concentration 1000 nM, read-out: Percent Control
# T12 construct: purchased Eurofins DiscoverX KINOMEscan
# Excerpt: as §1
# MERTK = molecular target: T13, MERTK (Homo sapiens, UniProt Q12866); assay: KINOMEscan 1 μM, MERTK; type: binding; conditions: 1000 nM; Entrez MERTK; read-out: Percent Control
# T13 construct: purchased Eurofins DiscoverX KINOMEscan
# Excerpt: as §1
# CDK11 = molecular target: T14, CDK11 (Homo sapiens, UniProt Q9BWU1); assay: KINOMEscan 1 μM, CDK11; type: binding; conditions: 1000 nM; Entrez CDK19; read-out: Percent Control
# T14 construct: purchased Eurofins DiscoverX KINOMEscan
# Excerpt: as §1
# PIK3CD = molecular target: T15, PIK3CD (Homo sapiens, UniProt O00329); assay: DiscoverX KINOMEscan binding assay at 1 μM, PIK3CD; conditions: Compound Concentration 1000 nM, read-out: Percent Control
# T15 construct: purchased Eurofins DiscoverX KINOMEscan
# Excerpt: as §1
# [2] = molecular target: T16, ABL1(F317L)-phosphorylated (Homo sapiens, UniProt P00519, F317L); assay: KINOMEscan at 1 μM, ABL1(F317L)-phosphorylated; type: binding; conditions: 1000 nM, read-out: Percent Control
# T16 construct: purchased Eurofins DiscoverX KINOMEscan
# Excerpt: (§2) Supplement cells-12-00287-s001.zip/File S2. KinomeScan data for the CAMKK2 probe and negative control.xlsx, sheet "SGC-CAMKK2-1N" | column: Percent Control
# [3] = molecular target: T17, RSK3(Kin.Dom.2-C-terminal) (Homo sapiens, UniProt Q15349); assay: KINOMEscan at 1 μM, RSK3(Kin.Dom.2-C-terminal); type: binding; conditions: 1000 nM, read-out: Percent Control
# T17 construct: RSK3(Kin.Dom.2-C-terminal); purchased Eurofins DiscoverX KINOMEscan
# Excerpt: as §2
# [4] = molecular target: T18, RSK2(Kin.Dom.1-N-terminal) (Homo sapiens, UniProt P51812); assay: KINOMEscan at 1 μM, RSK2(Kin.Dom.1-N-terminal); type: binding; conditions: 1000 nM, read-out: Percent Control
# T18 construct: RSK2(Kin.Dom.1-N-terminal); purchased Eurofins DiscoverX KINOMEscan
# Excerpt: as §2
# SGK2 = molecular target: T19, SGK2 (Homo sapiens, UniProt Q9HBY8); assay: KINOMEscan at 1 μM, SGK2; type: binding; conditions: 1000 nM, read-out: Percent Control
# T19 construct: purchased Eurofins DiscoverX KINOMEscan
# Excerpt: as §2
# CSNK2A1 = molecular target: T20, CSNK2A1 (Homo sapiens, UniProt P68400); assay: KINOMEscan at 1 μM, CSNK2A1; type: binding; conditions: 1000 nM, read-out: Percent Control
# T20 construct: purchased Eurofins DiscoverX KINOMEscan
# Excerpt: as §2
# FLT3(D835V) = molecular target: T21, FLT3(D835V) (Homo sapiens, UniProt P36888, D835V); assay: KINOMEscan at 1 μM, FLT3(D835V); type: binding; conditions: 1000 nM, read-out: Percent Control
# T21 construct: purchased Eurofins DiscoverX KINOMEscan
# Excerpt: as §2
# BMPR2 = molecular target: T22, BMPR2 (Homo sapiens, UniProt Q13873); assay: KINOMEscan at 1 μM, BMPR2; type: binding; conditions: 1000 nM, read-out: Percent Control
# T22 construct: purchased Eurofins DiscoverX KINOMEscan
# Excerpt: as §2
# TNK1 = molecular target: T23, TNK1 (Homo sapiens, UniProt Q13470); assay: KINOMEscan binding assay at 1 μM, TNK1; conditions: Compound Concentration 1000 nM; read-out: Percent Control
# T23 construct: purchased Eurofins DiscoverX KINOMEscan
# Excerpt: as §2
# VRK2 = molecular target: T24, VRK2 (Homo sapiens, UniProt Q86Y07); assay: KINOMEscan at 1 μM, VRK2; type: binding; conditions: 1000 nM, read-out: Percent Control
# T24 construct: purchased Eurofins DiscoverX KINOMEscan
# Excerpt: as §2
# CSNK1A1 = molecular target: T25, CSNK1A1 (Homo sapiens, UniProt P48729); assay: KINOMEscan at 1 μM, CSNK1A1; type: binding; conditions: 1000 nM, read-out: Percent Control
# T25 construct: purchased Eurofins DiscoverX KINOMEscan
# Excerpt: as §2
# DLK = molecular target: T26, DLK (Homo sapiens, UniProt Q12852); assay: KINOMEscan at 1 μM, DLK; type: binding; conditions: 1000 nM, read-out: Percent Control
# T26 construct: purchased Eurofins DiscoverX KINOMEscan
# Excerpt: as §2
# EGFR(G719S) = molecular target: T27, EGFR(G719S) (Homo sapiens, UniProt P00533, G719S); assay: KINOMEscan binding assay at 1 μM, EGFR(G719S); conditions: Compound Concentration 1000 nM; read-out: Percent Control
# T27 construct: purchased Eurofins DiscoverX KINOMEscan
# Excerpt: as §2
# FLT1 = molecular target: T28, FLT1 (Homo sapiens, UniProt P17948); assay: KINOMEscan at 1 μM, FLT1; type: binding; conditions: 1000 nM, read-out: Percent Control
# T28 construct: purchased Eurofins DiscoverX KINOMEscan
# Excerpt: as §2
# RET(V804M) = molecular target: T29, RET(V804M) (Homo sapiens, UniProt P07949, V804M); assay: KINOMEscan binding assay at 1 μM, RET(V804M); conditions: Compound Concentration 1000 nM; read-out: Percent Control
# T29 construct: purchased Eurofins DiscoverX KINOMEscan
# Excerpt: as §2
# MAP3K15 = molecular target: T30, MAP3K15 (Homo sapiens, UniProt Q6ZN16); assay: KINOMEscan binding assay at 1 μM, MAP3K15; conditions: Compound Concentration 1000 nM; read-out: Percent Control
# T30 construct: purchased Eurofins DiscoverX KINOMEscan
# Excerpt: as §2
# MST1R = molecular target: T31, MST1R (Homo sapiens, UniProt Q04912); assay: KINOMEscan at 1 μM, MST1R; type: binding; conditions: 1000 nM, read-out: Percent Control
# T31 construct: purchased Eurofins DiscoverX KINOMEscan
# Excerpt: as §2
# AKT2 = molecular target: T32, AKT2 (Homo sapiens, UniProt P31751); assay: KINOMEscan at 1 μM, AKT2; type: binding; conditions: 1000 nM, read-out: Percent Control
# T32 construct: purchased Eurofins DiscoverX KINOMEscan
# Excerpt: as §2
# FGFR2 = molecular target: T33, FGFR2 (Homo sapiens, UniProt P21802); assay: KINOMEscan at 1 μM, FGFR2; type: binding; conditions: 1000 nM, read-out: Percent Control
# T33 construct: purchased Eurofins DiscoverX KINOMEscan
# Excerpt: as §2
# MAST1 = molecular target: T34, MAST1 (Homo sapiens, UniProt Q9Y2H9); assay: KINOMEscan binding assay at 1 μM, MAST1; conditions: Compound Concentration 1000 nM; read-out: Percent Control
# T34 construct: purchased Eurofins DiscoverX KINOMEscan
# Excerpt: as §2
# T34 sequence (Q9Y2H9 whole entry): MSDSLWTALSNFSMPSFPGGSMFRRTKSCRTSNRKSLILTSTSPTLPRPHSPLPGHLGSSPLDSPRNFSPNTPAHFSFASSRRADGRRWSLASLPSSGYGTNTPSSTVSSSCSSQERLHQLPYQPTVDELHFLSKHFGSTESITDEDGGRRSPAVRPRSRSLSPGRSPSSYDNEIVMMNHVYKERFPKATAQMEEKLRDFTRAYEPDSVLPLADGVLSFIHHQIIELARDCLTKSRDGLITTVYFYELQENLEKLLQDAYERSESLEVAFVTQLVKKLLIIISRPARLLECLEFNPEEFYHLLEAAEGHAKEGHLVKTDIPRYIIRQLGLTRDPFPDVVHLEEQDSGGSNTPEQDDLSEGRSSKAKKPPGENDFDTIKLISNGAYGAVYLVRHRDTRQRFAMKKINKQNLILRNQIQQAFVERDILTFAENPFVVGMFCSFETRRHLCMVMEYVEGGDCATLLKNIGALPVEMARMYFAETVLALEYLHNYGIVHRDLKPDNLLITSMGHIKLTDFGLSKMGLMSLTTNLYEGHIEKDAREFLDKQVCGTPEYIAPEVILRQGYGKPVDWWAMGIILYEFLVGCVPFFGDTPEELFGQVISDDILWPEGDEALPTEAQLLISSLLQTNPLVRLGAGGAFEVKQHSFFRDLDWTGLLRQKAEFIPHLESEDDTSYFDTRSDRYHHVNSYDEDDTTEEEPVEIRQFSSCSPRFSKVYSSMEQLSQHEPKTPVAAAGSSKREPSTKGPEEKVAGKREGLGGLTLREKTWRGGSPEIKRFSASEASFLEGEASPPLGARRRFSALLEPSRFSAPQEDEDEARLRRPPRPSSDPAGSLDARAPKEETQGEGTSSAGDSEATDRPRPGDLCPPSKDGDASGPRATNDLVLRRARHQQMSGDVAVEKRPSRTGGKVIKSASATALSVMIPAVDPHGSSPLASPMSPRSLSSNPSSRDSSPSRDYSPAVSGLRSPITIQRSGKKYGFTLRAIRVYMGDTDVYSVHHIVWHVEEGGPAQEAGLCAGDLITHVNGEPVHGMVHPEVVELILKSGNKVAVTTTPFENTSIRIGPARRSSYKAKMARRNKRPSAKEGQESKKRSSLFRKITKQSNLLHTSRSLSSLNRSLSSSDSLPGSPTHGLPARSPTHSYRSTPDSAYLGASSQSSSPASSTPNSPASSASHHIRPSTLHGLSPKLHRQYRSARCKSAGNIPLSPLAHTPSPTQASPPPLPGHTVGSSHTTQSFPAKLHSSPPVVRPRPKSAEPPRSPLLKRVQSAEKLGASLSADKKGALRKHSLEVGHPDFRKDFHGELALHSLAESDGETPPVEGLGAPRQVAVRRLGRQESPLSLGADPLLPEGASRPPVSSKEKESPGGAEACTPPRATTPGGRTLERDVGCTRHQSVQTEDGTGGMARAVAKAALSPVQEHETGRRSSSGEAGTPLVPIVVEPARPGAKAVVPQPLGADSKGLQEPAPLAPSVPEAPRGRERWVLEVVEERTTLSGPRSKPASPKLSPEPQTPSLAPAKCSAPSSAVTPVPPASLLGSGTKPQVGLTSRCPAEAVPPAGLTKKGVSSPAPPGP
# T13 sequence (Q12866 21-999): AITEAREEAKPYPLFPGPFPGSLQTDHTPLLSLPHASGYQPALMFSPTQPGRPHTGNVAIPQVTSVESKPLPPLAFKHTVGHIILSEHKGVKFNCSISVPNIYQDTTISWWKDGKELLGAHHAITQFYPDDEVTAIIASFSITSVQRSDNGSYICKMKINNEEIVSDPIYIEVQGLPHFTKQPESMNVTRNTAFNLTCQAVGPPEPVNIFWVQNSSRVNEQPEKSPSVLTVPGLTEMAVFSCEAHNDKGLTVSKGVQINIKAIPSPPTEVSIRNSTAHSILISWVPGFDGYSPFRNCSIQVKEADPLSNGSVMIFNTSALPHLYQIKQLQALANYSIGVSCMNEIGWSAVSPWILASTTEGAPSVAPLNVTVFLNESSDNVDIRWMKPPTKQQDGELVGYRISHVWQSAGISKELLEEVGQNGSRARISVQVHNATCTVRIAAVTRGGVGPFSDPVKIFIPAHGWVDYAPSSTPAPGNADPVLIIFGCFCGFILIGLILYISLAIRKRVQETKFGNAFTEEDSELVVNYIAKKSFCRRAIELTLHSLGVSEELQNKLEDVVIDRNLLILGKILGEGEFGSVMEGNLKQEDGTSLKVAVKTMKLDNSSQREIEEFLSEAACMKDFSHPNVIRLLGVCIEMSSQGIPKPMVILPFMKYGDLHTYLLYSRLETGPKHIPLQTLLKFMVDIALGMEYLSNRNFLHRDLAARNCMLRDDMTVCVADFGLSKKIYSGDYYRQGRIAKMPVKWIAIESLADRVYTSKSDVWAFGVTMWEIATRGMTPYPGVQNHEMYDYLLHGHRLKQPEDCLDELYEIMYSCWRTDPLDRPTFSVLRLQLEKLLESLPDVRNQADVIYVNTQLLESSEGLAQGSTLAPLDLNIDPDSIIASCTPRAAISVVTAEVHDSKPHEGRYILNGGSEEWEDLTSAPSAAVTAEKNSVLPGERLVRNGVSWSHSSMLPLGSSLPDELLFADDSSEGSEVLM
# T3 sequence (P42336 whole entry): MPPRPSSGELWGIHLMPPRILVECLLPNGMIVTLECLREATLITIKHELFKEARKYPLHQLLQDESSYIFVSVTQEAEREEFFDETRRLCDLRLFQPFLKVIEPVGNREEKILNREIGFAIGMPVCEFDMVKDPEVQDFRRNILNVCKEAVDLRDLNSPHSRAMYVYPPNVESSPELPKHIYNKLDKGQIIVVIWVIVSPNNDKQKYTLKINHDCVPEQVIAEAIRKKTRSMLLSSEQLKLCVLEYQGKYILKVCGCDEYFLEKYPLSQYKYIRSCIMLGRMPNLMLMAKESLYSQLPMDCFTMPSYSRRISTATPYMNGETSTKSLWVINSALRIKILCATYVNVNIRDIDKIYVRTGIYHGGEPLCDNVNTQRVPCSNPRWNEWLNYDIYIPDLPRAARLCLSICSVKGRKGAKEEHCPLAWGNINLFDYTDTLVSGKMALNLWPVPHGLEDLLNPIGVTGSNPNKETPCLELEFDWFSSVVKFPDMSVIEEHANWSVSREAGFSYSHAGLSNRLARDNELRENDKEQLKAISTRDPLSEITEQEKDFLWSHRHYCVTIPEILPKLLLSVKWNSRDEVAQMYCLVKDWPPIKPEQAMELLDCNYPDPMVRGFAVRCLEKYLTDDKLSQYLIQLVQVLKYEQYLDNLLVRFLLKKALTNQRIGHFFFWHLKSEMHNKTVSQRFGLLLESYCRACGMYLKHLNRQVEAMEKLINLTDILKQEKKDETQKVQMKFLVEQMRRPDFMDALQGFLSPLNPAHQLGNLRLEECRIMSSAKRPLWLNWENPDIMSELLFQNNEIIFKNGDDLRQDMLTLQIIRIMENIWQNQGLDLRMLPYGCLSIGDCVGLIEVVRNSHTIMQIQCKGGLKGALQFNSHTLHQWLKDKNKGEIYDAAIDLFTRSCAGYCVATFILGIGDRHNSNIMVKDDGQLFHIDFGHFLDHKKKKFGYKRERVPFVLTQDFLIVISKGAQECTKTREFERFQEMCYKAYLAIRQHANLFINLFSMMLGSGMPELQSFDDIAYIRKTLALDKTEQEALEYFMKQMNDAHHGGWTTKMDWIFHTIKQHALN
# T16 sequence (P00519 whole entry F317L): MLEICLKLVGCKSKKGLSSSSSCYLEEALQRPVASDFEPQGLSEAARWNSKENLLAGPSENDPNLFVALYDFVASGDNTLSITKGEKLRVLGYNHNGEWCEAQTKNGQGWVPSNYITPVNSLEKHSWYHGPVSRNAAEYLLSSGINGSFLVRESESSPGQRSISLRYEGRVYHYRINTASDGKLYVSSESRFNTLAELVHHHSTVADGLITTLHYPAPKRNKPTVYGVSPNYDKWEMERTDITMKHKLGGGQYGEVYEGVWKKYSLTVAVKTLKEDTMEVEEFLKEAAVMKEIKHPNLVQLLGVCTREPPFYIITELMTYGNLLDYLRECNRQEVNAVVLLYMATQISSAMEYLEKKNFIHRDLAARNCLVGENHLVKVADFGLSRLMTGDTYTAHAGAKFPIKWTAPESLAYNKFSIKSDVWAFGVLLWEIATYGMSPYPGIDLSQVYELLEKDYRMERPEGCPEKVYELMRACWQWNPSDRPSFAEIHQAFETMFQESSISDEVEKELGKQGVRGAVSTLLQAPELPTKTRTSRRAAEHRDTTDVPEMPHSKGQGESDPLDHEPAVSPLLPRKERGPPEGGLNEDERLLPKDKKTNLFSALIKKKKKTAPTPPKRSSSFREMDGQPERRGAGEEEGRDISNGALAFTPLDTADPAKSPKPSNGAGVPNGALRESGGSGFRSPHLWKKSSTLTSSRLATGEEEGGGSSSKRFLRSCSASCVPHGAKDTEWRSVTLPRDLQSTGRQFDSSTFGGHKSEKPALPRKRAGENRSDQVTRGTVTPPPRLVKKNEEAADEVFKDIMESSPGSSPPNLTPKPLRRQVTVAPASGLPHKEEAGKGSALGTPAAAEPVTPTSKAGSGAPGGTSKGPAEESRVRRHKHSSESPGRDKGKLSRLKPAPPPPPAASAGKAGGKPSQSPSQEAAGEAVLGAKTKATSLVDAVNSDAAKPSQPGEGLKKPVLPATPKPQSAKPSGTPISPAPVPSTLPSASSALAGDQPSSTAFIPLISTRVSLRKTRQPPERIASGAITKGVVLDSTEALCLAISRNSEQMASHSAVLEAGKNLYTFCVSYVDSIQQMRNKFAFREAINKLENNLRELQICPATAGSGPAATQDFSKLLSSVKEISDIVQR
# T17 sequence (Q15349 389-733 limits assumed): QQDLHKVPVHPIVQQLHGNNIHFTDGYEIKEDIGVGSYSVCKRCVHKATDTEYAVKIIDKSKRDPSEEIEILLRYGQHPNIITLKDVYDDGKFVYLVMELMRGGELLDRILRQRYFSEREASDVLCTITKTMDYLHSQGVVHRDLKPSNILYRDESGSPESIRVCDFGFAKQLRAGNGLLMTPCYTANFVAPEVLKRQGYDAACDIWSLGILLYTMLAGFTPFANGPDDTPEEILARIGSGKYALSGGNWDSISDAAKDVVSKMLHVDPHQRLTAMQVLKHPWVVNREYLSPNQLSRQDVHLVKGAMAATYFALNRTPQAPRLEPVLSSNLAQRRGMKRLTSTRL
smiles,measurement,setting,value
Cc1cccc(-c2cnc3occ(-c4ccc(C(=O)O)c(C5CCCC5)c4)c3c2)c1 [SGC-CAMKK2-1 (YL-36)],remaining binding at 1 µM,EGFR(T790M),100%
same,remaining binding at 1 µM,[1],100%
same,remaining binding at 1 µM,PIK3CA,100%
same,remaining binding at 1 µM,PDGFRB,100%
same,remaining binding at 1 µM,TRKC,81%
same,remaining binding at 1 µM,MAP3K2,100%
same,remaining binding at 1 µM,TLK2,100%
same,remaining binding at 1 µM,FER,77%
same,remaining binding at 1 µM,FGFR1,100%
same,remaining binding at 1 µM,STK35,73%
same,remaining binding at 1 µM,RIOK2,100%
same,remaining binding at 1 µM,PLK1,100%
same,remaining binding at 1 µM,MERTK,100%
same,remaining binding at 1 µM,CDK11,98%
same,remaining binding at 1 µM,PIK3CD,100%
O=C(O)c1ccc(-c2coc3ncc(-c4ccccc4)cc23)cc1Cl [SGC-CAMKK2-1N (UNC-YL-83)],remaining binding at 1 µM,[2],79%
same,remaining binding at 1 µM,[3],91%
same,remaining binding at 1 µM,[4],88%
same,remaining binding at 1 µM,SGK2,73%
same,remaining binding at 1 µM,CSNK2A1,80%
same,remaining binding at 1 µM,FLT3(D835V),97%
same,remaining binding at 1 µM,BMPR2,71%
same,remaining binding at 1 µM,TNK1,100%
same,remaining binding at 1 µM,VRK2,58%
same,remaining binding at 1 µM,CSNK1A1,44%
same,remaining binding at 1 µM,DLK,77%
same,remaining binding at 1 µM,EGFR(G719S),100%
same,remaining binding at 1 µM,FLT1,76%
same,remaining binding at 1 µM,RET(V804M),100%
same,remaining binding at 1 µM,MAP3K15,100%
same,remaining binding at 1 µM,MST1R,98%
same,remaining binding at 1 µM,AKT2,85%
same,remaining binding at 1 µM,FGFR2,84%
same,remaining binding at 1 µM,MAST1,100%
